Results taken from patent US10781456B2, “Carbon-neutral and carbon-positive photorespiration bypass routes supporting higher photosynthetic rate and yield” (Max-Planck-Gesellschaft zur Förderung der Wissenschaften …, priority 2015, dated 2020).
Where two headings read alike, the source gives them in different places.

Legend:
[1] = target: D-fructose 6-phosphate aldolase encoded by E. coli gene fsaA (UniProt P78055); conditions: cited from earlier work
[2] = target: D-fructose 6-phosphate aldolase encoded by E. coli gene fsaB (UniProt P32669); conditions: cited from earlier work
[3] = target: transaldolase TalB from E. coli (UniProt P0A870); conditions: cited from earlier work
[4] = target: transaldolase Tal from B. subtilis (UniProt P19669); conditions: cited from earlier work
[5] = target: transaldolase Tal from C. glutamicum (UniProt Q8NQ64); conditions: cited from earlier work
[6] = substrate: O=C(O)CO; assay: purified protein, by the assay type; conditions: other: 37° C., pH 7.5, 2 mM acetyl-CoA, 10-800 mM glycolate, n=3
[7] = substrate: O=C(COP(=O)(O)O)[C@H](O)[C@H](O)CO; assay: isomerisation of D-ribulose 1-phosphate to D-ribose 1-phosphate (reaction 29#), preliminary study; format: biochemical; conditions: other: preliminary study
glycolyl-CoA [8] = assay: propionyl-CoA carboxylase ATP hydrolysis assay coupled to PK/LDH, NADH oxidation at 340 nm, product tartronyl-CoA confirmed by UPLC-hrMS (reaction 3#); format: biochemical
Method: The activity of the PCCMe_D407I_Y143H protein as well as the PCCMe protein was determined spectrophotometrically at 37° C. The ATP hydrolysis reaction of the respective enzyme was coupled to ATP regeneration by pyruvate kinase (PK) with phosphoenolpyruvate (PEP) and subsequent reduction to lactate by lactate dehydrogenase (LDH). The oxidation of NADH by LDH was followed spectrophotometrically at 340 nm. The reaction mixture (300 μL) contained 200 mM NH4HCO3 buffer, pH 7.7, 5 mM MgCl2, 1 mM ATP, 1 mM PEP, 4 U PK, 5.8 U LDH, 0.3 mM NADH and 48 μg of PCCMe_D407I_Y143H or PCCMe. The reaction was initiated by addition of 1 mM glycolyl-CoA. Samples for UPLC-hrMS were withdrawn and stopped by acidification (5% formic acid) after most of the NADH was consumed. Precipitated protein was removed by centrifugation at 4° C. and 17 000×g. The supernatants were analyzed by UPLC-hrMS as described above. […] As mentioned above, and shown in FIG. 10, the glycolyl-CoA carboxylation activity of the PCCMe_D407I_Y143H enzyme was confirmed by direct detection of the product tartronyl-CoA by UPLC-hrMS.
In a second assay, the reaction mixture was slightly modified for a ^13C labeling experiment. Here, the reaction mixture contained 50 mM NH4HCO3 buffer, pH 7.7 and 150 mM [^13C]NaHCO3, pH 7.7 (otherwise as above-mentioned). […]

glycolyl-CoA [9] = assay: MCRCa coupled assay: glycolyl-CoA carboxylation by PCC coupled to two step reduction to glycerate by MCRCa (reactions 3#, 4#, 5), HPLC-hrMS and NADPH absorption; format: biochemical
Method: In addition to the above mentioned assays also another assay was performed in which the formation of tartronyl-CoA from glycolyl-CoA (reaction 3#) by the PCCMe_D407I_Y143H enzyme was directly coupled to its subsequent two step reduction via tartronate-semialdehyde (reaction 4#) to glycerate (reaction 5) by use of the purified MCRCa (Kröger et al., 2011, loc. cit.). The reaction mixture (300 μL) contained 200 mM NH4HCO3 buffer, pH 7.7, 5 mM MgCl2, 1 mM ATP, 0.4 mM NADPH, 43 μg PCCMe_D407I_Y143H, and 184 μg of MCRCa.
To determine whether MCRCa was able to catalyze the two step reduction of tartonyl-CoA to glycerate (via tartronic semialdehyde), samples of the reaction mixture were withdrawn after all of the NADPH was consumed. The samples were stopped with formic acid (5% final concentration). The acidified samples were centrifuged at 4° C. and 17 000×g and the supernatants were analyzed by HPLC-hrMS.
The formation of glycerate was analyzed using an Agilent 6550 iFunnel Q-TOF LC-MS system equipped with an electrospray ionization source set to negative ionization mode. […]
LC-MS data were analyzed using MassHunter Qualitative Analysis software (Agilent). […] In such assays the tartronate semialdehyde can be covalently derivatized with phenylhydrazine to a phenylhydrazone, which can be detected by its absorbance at 324 nm and confirmed by its corresponding mass spectrum. […]

[10] = as an acceptor, read-out: KM for glycolaldehyde as an acceptor
[11] = bound stated for both fsaA and fsaB enzymes, read-out: KM (condensation of glycolaldehyde as donor with D-glyceraldehyde 3-phosphate as acceptor)
[12] = D-fructose 6-phosphate and glycolaldehyde, range over the three transaldolases
[13] = transaldolase reaction with D-fructose 6-phosphate, read-out: KM towards glycolaldehyde

O=CCO [glycolaldehyde]
Km [1, 10]: > 60000 µM | Km [1, 11]: < 1000 µM | Km ([1]; read-out: KM for glycolaldehyde): ~200 µM | Km [2, 10]: > 60 mM | Km [2, 11]: < 1 mM | vmax [3, 12]: 1.6 to 8.8 µmol/min/mg | Km [3, 13]: > 60 mM | vmax [4, 12]: 1.6 to 8.8 µmol/min/mg | Km [4, 13]: > 60 mM | vmax [5, 12]: 1.6 to 8.8 µmol/min/mg | Km [5, 13]: > 60 mM

B1: propionyl-CoA transferase from Ralstonia eutropha (PCTRe), wild type, SEQ ID NO: 12 (Cupriavidus necator H16) (protein)
chain: MKVITAREAAALVQDGWTVASAGFVGAGHAEAVTEALEQRFLQSGLPRDLTLVYSAGQGDRGARGVNHFGNAGMTASIVGGHWRSATRLATLAMAEQCEGYNLPQGVLTHLYRAIAGGKPGVMTKIGLHTFVDPRTAQDARYHGGAVNERARQAIAEGKACWVDAVDFRGDEYLFYPSFPIHCALIRCTAADARGNLSTHREAFHHELLAMAQAAHNSGGIVIAQVESLVDHHEILQAIHVPGILVDYVVVCDNPANHQMTFAESYNPAYVTPWQGEAAVAEAEAAPVAAGPLDARTIVQRRAVMELARRAPRVVNLGVGMPAAVGMLAHQAGLDGFTLTVEAGPIGGTPADGLSFGASAYPEAVVDQPAQFDFYEGGGIDLAILGLAELDGHGNVNVSKFGEGEGASIAGVGGFINITQSARAVVFMGTLTAGGLEVRAGDGGLQIVREGRVKKIVPEVSHLSFNGPYVASLGIPVLYITERAVFEMRAGADGEARLTLVEIAPGVDLQRDVLDQCSTPIAVAQDLREMDARLFQAGPLHL
Km [6]: 51.7 ± 9.6 mM (glycolate) mM

B2: 5-methylthio-D-ribulose 1-phosphate 1,2-isomerase Rru_A0360 (Rhodospirillum rubrum ATCC 11170) (protein)
chain: MNVKGTPTRTIWPAREGGAVWIIDQTRLPHEFVTQRLNDLGAVAHAIRAMLVRGAPLIGATAAYGVALGMAEDPSDEGLTRACQTLLATRPTAVNLRWAIEAMAESLAAVPPDQRAQAAWAKAGAICDEDVALNEAIGDHGLGIIKDLARTKGVEKGGEGPINILTHCNAGWLATVDWGTALAPLYKAHDAGLPIHVWVDETRPRNQGASLTAWELNSHGVPHTVIADNTGGHLMQHGLVDMVIVGTDRTTATGDVCNKIGTYLKALAAFDNAVPFYVALPGPTIDWTVNDGLREIPIEQRDAAEVTRVWGRTAAGALEWVTITPTGSPAANYAFDVTPARLITGLITERGVCAASAAGLAGLYPERAPAPVPAGSAAGKGAAATADGAL
notes: preliminary kinetics, preparation not described
kcat [7]: 0.03 s⁻¹

B3: PCCMe: propionyl-CoA carboxylase of Methylobacterium extorquens, subunits pccA (SEQ ID NO: 2) and pccB (SEQ ID NO: 4) (protein, listed as Methylobacterium extorquens)
alpha: MFDKILIANRGEIACRIIKTAQKMGIKTVAVYSDADRDAVHVAMADEAVHIGPAPAAQSYLLIEKIIDACKQTGAQAVHPGYGFLSERESFPKALAEAGIVFIGPNPGAIAAMGDKIESKKAAAAAEVSTVPGFLGVIESPEHAVTIADEIGYPVMIKASAGGGGKGMRIAESADEVAEGFARAKSEASSSFGDDRVFVEKFITDPRHIEIQVIGDKHGNVIYLGERECSIQRRNQKVIEEAPSPLLDEETRRKMGEQAVALAKAVNYDSAGTVEFVAGQDKSFYFLEMNTRLQVEHPVTEMITGLDLVELMIRVAAGEKLPLSQDQVKLDGWAVESRVYAEDPTRNFLPSIGRLTTYQPPEEGPLGGAIVRNDTGVEEGGEIAIHYDPMIAKLVTWAPTRLEAIEAQATALDAFAIEGIRHNIPFLATLMAHPRWRDGRLSTGFIKEEFPEGFIAPEPEGPVAHRLAAVAAAIDHKLNIRKRGISGQMRDPSLLTFQRERVVVLSGQRFNVTVDPDGDDLLVTFDDGTTAPVRSAWRPGAPVWSGTVGDQSVAIQVRPLLNGVFLQHAGAAAEARVFTRREAELADLMPVKENAGSGKQLLCPMPGLVKQIMVSEGQEVKNGEPLAIVEAMKMENVLRAERDGTISKIAAKEGDSLAVDAVILEFA
beta: MKDILEKLEERRAQARLGGGEKRLEAQHKRGKLTARERIELLLDHGSFEEFDMFVQHRSTDFGMEKQKIPGDGVVTGWGTVNGRTVFLFSKDFTVFGGSLSEAHAAKIVKVQDMALKMRAPIIGIFDAGGARIQEGVAALGGYGEVFRRNVAASGVIPQISVIMGPCAGGDVYSPAMTDFIFMVRDTSYMFVTGPDVVKTVTNEVVTAEELGGAKVHTSKSSIADGSFENDVEAILQIRRLLDFLPANNIEGVPEIESFDDVNRLDKSLDTLIPDNPNKPYDMGELIRRVVDEGDFFEIQAAYARNIITGFGRVEGRTVGFVANQPLVLAGVLDSDASRKAARFVRFCNAFSIPIVTFVDVPGFLPGTAQEYGGLIKHGAKLLFAYSQATVPLVTIITRKAFGGAYDVMASKHVGADLNYAWPTAQIAVMGAKGAVEIIFRAEIGDADKIAERTKEYEDRFLSPFVAAERGYIDEVIMPHSTRKRIARALGMLRTKEMEQPWKKHDNIPL
modifications: [CDS]1..2004 from SEQ ID NO 1; [CDS]1..1533 from SEQ ID NO 3
glycolyl-CoA carboxylation activity (tartronyl-CoA by UPLC-hrMS) (glycolyl-CoA [8]): exhibited a glycolyl-CoA carboxylation activity, although the activity was lower | glycolyl-CoA-dependent ATP hydrolysis rate (glycolyl-CoA [8]; 1 mM glycolyl-CoA, 37° C.): 0.4 U mg^−1 | activity with glycolyl-CoA in the MCRCa coupled assay (glycolyl-CoA [9]): no activity could be measured
